# Reference: patent US9732068B1, “System for crystalizing chemical compounds and methodologies for utilizing the same” (GenSyn Technologies, Inc., priority 2013, dated 2017)
# Test: Particle size measurement of crystallized compound with Horiba L950 particle size analyzer
# Type: physicochemical
# Details: for Span: Span=(D90-D10)/D50; for median particle size: final solution after crystallization in system 10
# Description: Just as importantly as desirable small particle sizes is uniformity of particle size distributions (i.e., described by “D values”). D values of “D10”, “D50” and “D90” may be used to represent the midpoint and range of particle sizes of a given sample. The D10 particle size is the diameter at which 10% of a sample's mass is comprised of smaller particles. The D50 is the “mass median diameter” as it divides the sample equally by mass. The D90 particle size is the diameter at which 90% of a sample's mass is comprised of smaller particles.
# System 10 of the present invention enables the production of customized particles within a narrow range of particle sizes. A common value used to express the uniformity of particle size distribution is the “span”. The span is a measure of how wide of a spectrum of particle sizes is produced. A system with a low relative span is desirable as it will produce more uniform distribution of particle sizes. Span can be calculated with the equation below: Span=(D90−D10)/D50.
# Two grams of Paracetomol was dissolved in 100 grams of ethanol. Two grams of Soy Lecithin was dissolved in 50 grams of tetrahydrofuran (THF). The two solutions were combined and heated to 60° C. The solution was added to the input hopper of a dual piston pump 241. The pump 241 was fed into fluid input conduit 121 of the crystallization chamber 22 through a 0.006″ opening 701 of a nozzle 581. Heptane, at 10° C. was fed into fluid input conduits 122, 123 and 124 through 0.006″, 0.008″ and 0.008″ openings 702, 703, and 704 of nozzles 582, 583, and 584 respectively by an identical piston pump 242. The pressure on both pumps 241 and 242 was adjusted to 1000 psi. The mixed streams exited through fluid output conduit 32 and into fluid reservoir 34 containing approximately 100 ml of heptane. Approximately, the first third and last third of the mixture were discarded and only the central third collected in fluid reservoir 34. The final solution was sampled and the particle size was measured, in heptane, using a Horiba L950 particle size analyzer. The median particle size was about 1.3 microns. The Span was about 0.901.
# Two grams of Carbamazepine was dissolved in 100 grams of ethanol. Two grams of Soy Lecithin was dissolved in 50 grams of THF. The two solutions were combined and heated to 60° C. The solution was added to the input hopper of a dual piston pump 241. The pump 241 was fed into fluid input conduit 121 of the crystallization chamber 22 through a 0.004″ opening 701 of a nozzle 581. Heptane, at 10° C. was fed into fluid input conduits 122, 123 and 124 through 0.006″, 0.007″ and 0.007″ openings 702, 703, and 704 of nozzles 582, 583, and 584 respectively by an identical piston pump 242. The pressure on both pumps 241 and 242 was adjusted to 1500 psi. The mixed streams exited through fluid output conduit 32 and into fluid reservoir 34 containing approximately 100 ml of heptane. Approximately, the first third and last third of the mixture were discarded and only the central third collected in fluid reservoir 34. The final solution was sampled and the particle size was measured, in heptane, using a Horiba L950 particle size analyzer. The median particle size was about 1.5 microns. The Span was about 0.916.
# Two grams of Ketoprofen was dissolved in 100 grams of DMSO. Two grams of Sorbitan Monostearate was dissolved in 50 grams of THF. The two solutions were combined and heated to 60° C. The solution was added to the input hopper of a dual piston pump 241. The pump 241 was fed into fluid input conduits 121 of the crystallization chamber 22 through a 0.004″ opening 701 of a nozzle 581. DI water with 0.1% Polysorbate 20, at 5° C. was fed into fluid input conduits 122, 123 and 124 through 0.006″, 0.008″ and 0.008″ openings 702, 703, and 704 of nozzles 582, 583, and 584 respectively by an identical piston pump 242. The pressure on both pumps 241 and 242 was adjusted to 1500 psi. […]
Span (measured in heptane),median particle size (measured in heptane),Span (measured in DI water),median particle size (measured in DI water),Compound
about 0.916,about 1.5 microns,,,"NC(=O)N1c2ccccc2C=Cc2ccccc21 [Carbamazepine, 5H-dibenzo[b,f]azepine-5-carboxamide]"
about 0.901,about 1.3 microns,,,"CC(=O)Nc1ccc(O)cc1 [Paracetomol, N-(4-hydroxyphenyl)ethanamide]"
,,about 1.078,about 3.1 microns,"CC(C(=O)O)c1cccc(C(=O)c2ccccc2)c1 (racemic) [Ketoprofen, (RS)-2-(3-benzoylphenyl)propanoic acid]"
,,about 0.99,about 126 nanometers,"CC(C)c1c(C(=O)Nc2ccccc2)c(-c2ccccc2)c(-c2ccc(F)cc2)n1CC[C@@H](O)C[C@@H](O)CC(=O)O [Atorvastatin, (3R,5R)-7-[2-(4-fluorophenyl)-3-phenyl-4-(phenylcarbamoyl)-5-propan-2-ylpyrrol-1-yl]-3,5-dihydroxyheptanoic acid]"
